# Several values for one entry are separate records, joined by “and”; a condition that tells them apart may be missing. Equal values may be shown once.
# Key:
# Test in all cases: cells
# BE-13 = type: functional, cell-based; conditions: Homo sapiens;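 also: growth inhibition of human BE-13 cells, measured with a cell viability assay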
# Description: SANGER: Inhibition of human BE-13 cell growth in a cell viability assay.
# PANC-08-13 = type: functional, cell-based, Homo sapiens;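 also: cell growth inhibition, measured with a cell viability assay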
# Description: SANGER: Inhibition of human PANC-08-13 cell growth in a cell viability assay.
# RCC10RGB = type: functional, cell-based, Homo sapiens;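 also: growth inhibition of human RCC10RGB cells, read out by a cell viability assay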
# Description: SANGER: Inhibition of human RCC10RGB cell growth in a cell viability assay.
# EW-18 = type: functional, cell-based; conditions: Homo sapiens;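 also: growth inhibition of EW-18 cells, read out by a cell viability assay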
# Description: SANGER: Inhibition of human EW-18 cell growth in a cell viability assay.
# LU-134-A = type: functional, cell-based; conditions: Homo sapiens
# Description: SANGER: Inhibition of human LU-134-A cell growth in a cell viability assay.
# UACC-62 = type: functional, cell-based, Homo sapiens;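 also: growth inhibition of human UACC-62 cells, read out by a cell viability assay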
# Description: SANGER: Inhibition of human UACC-62 cell growth in a cell viability assay.
# SK-PN-DW = type: functional, cell-based; conditions: Homo sapiens;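 also: growth inhibition measured with a viability assay on these cells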
# Description: SANGER: Inhibition of human SK-PN-DW cell growth in a cell viability assay.
# A-427 = type: functional, cell-based, Homo sapiens;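 also: growth inhibition of human A-427 cells, read out by a cell viability assay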
# Description: SANGER: Inhibition of human A427 cell growth in a cell viability assay.
# SW 954 = type: functional, cell-based, Homo sapiens;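 also: growth inhibition of SW954 human cancer cells, read out as cell viability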
# Description: SANGER: Inhibition of human SW954 cell growth in a cell viability assay.
# NCI-H1437 = type: functional, cell-based, Homo sapiens;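 also: growth inhibition of human NCI-H1437 cells, read out by a cell viability assay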
# Description: SANGER: Inhibition of human NCI-H1437 cell growth in a cell viability assay.
# NB5 = type: functional, cell-based, Homo sapiens;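 also: growth inhibition of NB5 cells, read out as cell viability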
# Description: SANGER: Inhibition of human NB5 cell growth in a cell viability assay.
# U-266 = type: functional, cell-based; conditions: Homo sapiens
# Description: SANGER: Inhibition of human U-266 cell growth in a cell viability assay.
# HCC1954 = type: functional, cell-based, Homo sapiens;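 also: growth inhibition of human HCC1954 cells, read out with a cell viability assay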
# Description: SANGER: Inhibition of human HCC1954 cell growth in a cell viability assay.
# DMS-114 = type: functional, cell-based, Homo sapiens
# NCI-H661 = type: functional, cell-based, Homo sapiens;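 also: cell viability assay read-out, IC50 being the concentration that inhibits growth of the cells by half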
# Description: SANGER: Inhibition of human NCI-H661 cell growth in a cell viability assay.
# no-11 = type: functional, cell-based, Homo sapiens;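 also: growth inhibition of human NO-11 cells, read out with a cell viability assay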
# Description: SANGER: Inhibition of human no-11 cell growth in a cell viability assay.
# CCRF-CEM = type: functional, cell-based; conditions: Homo sapiens;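 also: inhibition of CCRF-CEM cell growth, measured by a cell viability assay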
# Description: SANGER: Inhibition of human CCRF-CEM cell growth in a cell viability assay.
# M14 = type: functional, cell-based, Homo sapiens;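 also: growth inhibition of M14 cells, read out with a cell viability assay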
# Description: SANGER: Inhibition of human M14 cell growth in a cell viability assay.
# U-251 = type: functional, cell-based, Homo sapiens;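 also: growth inhibition of human U-251 cells, read out through a cell viability assay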
# Description: SANGER: Inhibition of human U251 cell growth in a cell viability assay.
# COR-L105 = type: functional, cell-based, Homo sapiens;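 also: cell growth inhibition determined with a viability assay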
# Description: SANGER: Inhibition of human COR-L105 cell growth in a cell viability assay.
# NCI-H727 = type: functional, cell-based, Homo sapiens;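 also: growth inhibition of human NCI-H727 cells, read out with a cell viability assay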
# Description: SANGER: Inhibition of human NCI-H727 cell growth in a cell viability assay.
# HCC1419 = type: functional, cell-based, Homo sapiens;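 also: growth inhibition of human HCC1419 cells, read out as cell viability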
# Description: SANGER: Inhibition of human HCC1419 cell growth in a cell viability assay.
# NB6 = type: functional, cell-based, Homo sapiens;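 also: growth inhibition of NB6 cells, read out by a cell viability assay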
# Description: SANGER: Inhibition of human NB6 cell growth in a cell viability assay.
# NCI-H1581 = type: functional, cell-based, Homo sapiens;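 also: cell growth inhibition read out by a viability assay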
# Description: SANGER: Inhibition of human NCI-H1581 cell growth in a cell viability assay.
# PC-3 = type: functional, cell-based, Homo sapiens;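 also: cell viability assay measuring growth inhibition of PC-3 cells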
# Description: SANGER: Inhibition of human PC-3 cell growth in a cell viability assay.
# NOS-1 = type: functional, cell-based, Homo sapiens;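 also: growth inhibition of the human NOS-1 cell line, read out with a cell viability assay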
# Description: SANGER: Inhibition of human NOS-1 cell growth in a cell viability assay.
# NUGC-3 = type: functional, cell-based, Homo sapiens;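 also: growth inhibition of human NUGC-3 cells, read out with a cell viability assay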
# Description: SANGER: Inhibition of human NUGC-3 cell growth in a cell viability assay.
# NB10 = type: functional, cell-based, Homo sapiens;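 also: growth inhibition of NB10 cells, read out by a cell viability assay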
# Description: SANGER: Inhibition of human NB10 cell growth in a cell viability assay.
# CAL-72 = type: functional, cell-based, Homo sapiens;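 also: cell viability assay measuring inhibition of proliferation in the CAL-72 cell line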
# Description: SANGER: Inhibition of human CAL-72 cell growth in a cell viability assay.
# FaDu = type: functional, cell-based, Homo sapiens;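 also: cell viability readout of growth inhibition in FaDu cells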
# Description: SANGER: Inhibition of human FADU cell growth in a cell viability assay.
# HuP-T4 = type: functional, cell-based, Homo sapiens;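 also: cell viability assay measuring how much HuP-T4 cell growth is inhibited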
# Description: SANGER: Inhibition of human HuP-T4 cell growth in a cell viability assay.
# ALL-PO = type: functional, cell-based; conditions: Homo sapiens;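 also: growth inhibition of ALL-PO cells, read out by a cell viability assay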
# Description: SANGER: Inhibition of human ALL-PO cell growth in a cell viability assay.
# NB13 = type: functional, cell-based, Homo sapiens;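 also: cell viability readout measuring growth inhibition of human NB13 cells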
# Description: SANGER: Inhibition of human NB13 cell growth in a cell viability assay.
# CW-2 = type: functional, cell-based, Homo sapiens;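 also: growth inhibition of CW-2 cells, read out by a cell viability assay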
# Description: SANGER: Inhibition of human CW-2 cell growth in a cell viability assay.
# SK-MEL-28 = type: functional, cell-based; conditions: Homo sapiens;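 also: growth inhibition of human SK-MEL-28 cells, read out with a cell viability assay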
# Description: SANGER: Inhibition of human SK-MEL-28 cell growth in a cell viability assay.
# CGTH-W-1 = type: functional, cell-based, Homo sapiens;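 also: growth inhibition of human CGTH-W-1 cells measured by cell viability assay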
# Description: SANGER: Inhibition of human CGTH-W-1 cell growth in a cell viability assay.
# NCI-H2347 = type: functional, cell-based, Homo sapiens;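 also: growth inhibition of the cell line, read out with a cell viability assay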
# Description: SANGER: Inhibition of human NCI-H2347 cell growth in a cell viability assay.
# CTB-1 = type: functional, cell-based; conditions: Homo sapiens
# Description: SANGER: Inhibition of human CTB-1 cell growth in a cell viability assay.
# TE-9 = type: functional, cell-based, Homo sapiens;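 also: cell growth inhibition, measured with a cell viability readout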
# Description: SANGER: Inhibition of human TE-9 cell growth in a cell viability assay.
# RS4-11 = type: functional, cell-based; conditions: Homo sapiens;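 also: growth inhibition of RS4-11 cells, read out by a cell viability assay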
# Description: SANGER: Inhibition of human RS4-11 cell growth in a cell viability assay.
# A204 = type: functional, cell-based, Homo sapiens;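 also: growth inhibition of human A204 cells, read out with a cell viability assay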
# Description: SANGER: Inhibition of human A204 cell growth in a cell viability assay.
# MCF7 = type: functional, cell-based, Homo sapiens;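 also: growth inhibition of human MCF7 cells, read out with a cell viability assay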
# Description: SANGER: Inhibition of human MCF7 cell growth in a cell viability assay.
# ETK-1 = type: functional, cell-based, Homo sapiens;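 also: growth inhibition of human ETK-1 cells, read out with a cell viability assay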
# Description: SANGER: Inhibition of human ETK-1 cell growth in a cell viability assay.
# MS-1 = type: functional, cell-based; conditions: Homo sapiens
# Description: SANGER: Inhibition of human MS-1 cell growth in a cell viability assay.
# KMOE-2 = type: functional, cell-based; conditions: Homo sapiens;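 also: growth inhibition of human KMOE-2 cells, read out with a cell viability assay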
# Description: SANGER: Inhibition of human KMOE-2 cell growth in a cell viability assay.
# SW1710 = type: functional, cell-based, Homo sapiens;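 also: growth inhibition of SW1710 cells, determined with a cell viability assay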
# Description: SANGER: Inhibition of human SW1710 cell growth in a cell viability assay.
# HCC38 = type: functional, cell-based, Homo sapiens;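 also: cell viability assay on the human HCC38 cell line, with IC50 marking the concentration that inhibits cell growth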
# Description: SANGER: Inhibition of human HCC38 cell growth in a cell viability assay.
# SBC-5 = type: functional, cell-based, Homo sapiens;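 also: cell viability assay read-out, IC50 is the concentration that inhibits growth of the cells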
# Description: SANGER: Inhibition of human SBC-5 cell growth in a cell viability assay.
# RD = type: functional, cell-based, Homo sapiens
# Description: SANGER: Inhibition of human RD cell growth in a cell viability assay.
# CAL-120 = type: functional, cell-based, Homo sapiens;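 also: cell growth inhibition, read out as cell viability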
# Description: SANGER: Inhibition of human CAL-120 cell growth in a cell viability assay.
# NCI-H1299 = type: functional, cell-based, Homo sapiens;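 also: growth inhibition of human NCI-H1299 cells, read out by a cell viability assay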
# Description: SANGER: Inhibition of human NCI-H1299 cell growth in a cell viability assay.
# Hs-578T = type: functional, cell-based, Homo sapiens
# Description: SANGER: Inhibition of human Hs-578-T cell growth in a cell viability assay.
# UO-31 = type: functional, cell-based; conditions: Homo sapiens;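 also: cell viability assay measuring inhibition of cell growth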
# Description: SANGER: Inhibition of human U031 cell growth in a cell viability assay.
compound,measurement,setting,value
Cc1cc([C@@H](C)Nc2ccccc2C(=O)O)c2nc(N3CCOCC3)cc(=O)n2c1 [AZD-6482],IC50,BE-13,> 5.12 µM
same,IC50,PANC-08-13; panc-08-13,> 5.12 µM
same,IC50,RCC10RGB; rcc10rgb,> 5.12 µM
same,IC50,EW-18,> 5.12 µM
same,IC50,LU-134-A,> 5.12 µM
same,IC50,UACC-62; uacc-62,> 5.12 µM and 2.03 µM
same,IC50,SK-PN-DW,> 5.12 µM
same,IC50,A-427; a-427,0.995 µM and > 5.12 µM
same,IC50,SW 954; sw 954,4.5 µM and > 5.12 µM
same,IC50,NCI-H1437; nci-h1437,> 5.12 µM
same,IC50,NB5; nb5,> 5.12 µM
same,IC50,U-266,> 5.12 µM
same,IC50,"HCC1954; Homo sapiens, HCC1954",5.06 µM
same,IC50,HCC1954; hcc1954,> 5.12 µM
same,IC50,DMS-114; dms-114,> 5.12 µM
same,IC50,NCI-H661; nci-h661,> 5.12 µM
same,IC50,no-11,> 5.12 µM
same,IC50,CCRF-CEM,3.61 µM
same,IC50,M14; m14,> 5.12 µM
same,IC50,U-251; u-251,> 5.12 µM
same,IC50,COR-L105; cor-l105,> 5.12 µM
same,IC50,NCI-H727; nci-h727,> 5.12 µM
same,IC50,HCC1419; hcc1419,> 5.12 µM
same,IC50,NB6; nb6,> 5.12 µM
same,IC50,NCI-H1581; nci-h1581,> 5.12 µM
same,IC50,PC-3; pc-3,> 5.12 µM
same,IC50,"NOS-1; Homo sapiens, NOS-1",> 5.12 µM
same,IC50,NOS-1; nos-1,> 5.12 µM
same,IC50,NUGC-3; nugc-3,> 5.12 µM
same,IC50,"NB10; Homo sapiens, NB10",> 5.12 µM
same,IC50,NB10; nb10,> 5.12 µM
same,IC50,"CAL-72; Homo sapiens, CAL-72",> 5.12 µM
same,IC50,CAL-72; cal-72,> 5.12 µM
same,IC50,"FaDu; Homo sapiens, FaDu",> 5.12 µM
same,IC50,FaDu; fadu,> 5.12 µM
same,IC50,HuP-T4; hup-t4,> 5.12 µM
same,IC50,ALL-PO,> 5.12 µM
same,IC50,"NB13; Homo sapiens, NB13",> 5.12 µM
same,IC50,NB13; nb13,> 5.12 µM
same,IC50,CW-2; cw-2,> 5.12 µM
same,IC50,SK-MEL-28,> 5.12 µM
same,IC50,CGTH-W-1; cgth-w-1,> 5.12 µM
same,IC50,"NCI-H2347; Homo sapiens, NCI-H2347",> 5.12 µM
same,IC50,NCI-H2347; nci-h2347,> 5.12 µM
same,IC50,CTB-1,> 5.12 µM
same,IC50,TE-9; te-9,> 5.12 µM
same,IC50,RS4-11,0.738 µM
same,IC50,"A204; Homo sapiens, A204",> 5.12 µM
same,IC50,A204; a204,2.77 µM
same,IC50,MCF7; mcf7,> 5.12 µM and 3.35 µM
same,IC50,ETK-1; etk-1,> 5.12 µM
same,IC50,MS-1,> 5.12 µM
same,IC50,KMOE-2,> 5.12 µM
same,IC50,SW1710; sw1710,0.529 µM and 1.99 µM
same,IC50,HCC38; hcc38,> 5.12 µM
same,IC50,"SBC-5; Homo sapiens, SBC-5",> 5.12 µM
same,IC50,SBC-5; sbc-5,> 5.12 µM
same,IC50,"RD; Homo sapiens, RD",> 5.12 µM
same,IC50,RD; rd,> 5.12 µM
same,IC50,CAL-120; cal-120,> 5.12 µM
same,IC50,NCI-H1299; nci-h1299,3.67 µM and > 5.12 µM
same,IC50,Hs-578T; hs-578-t,> 5.12 µM and 3.5 µM
O=c1cc(-c2cccc3c2Sc2ccccc2S3)oc(N2CCOCC2)c1 [KU-55933],IC50,BE-13,> 10 µM
same,IC50,"PANC-08-13; Homo sapiens, PANC-08-13",> 10 µM
same,IC50,"RCC10RGB; Homo sapiens, RCC10RGB",> 10 µM
same,IC50,LU-134-A,> 10 µM
same,IC50,"UACC-62; Homo sapiens, UACC-62",> 10 µM
same,IC50,SK-PN-DW,> 10 µM
same,IC50,"A-427; Homo sapiens, A-427",> 10 µM
same,IC50,"SW 954; Homo sapiens, SW 954",> 10 µM
same,IC50,"NCI-H1437; Homo sapiens, NCI-H1437",9.81 µM
same,IC50,"NB5; Homo sapiens, NB5",> 10 µM
same,IC50,U-266,> 10 µM
same,IC50,"HCC1954; Homo sapiens, HCC1954",> 10 µM
same,IC50,"DMS-114; Homo sapiens, DMS-114",> 10 µM
same,IC50,"NCI-H661; Homo sapiens, NCI-H661",> 10 µM
same,IC50,UO-31,> 10 µM
same,IC50,no-11; Homo sapiens,> 10 µM
same,IC50,CCRF-CEM,> 10 µM
same,IC50,"M14; Homo sapiens, M14",> 10 µM
same,IC50,"U-251; Homo sapiens, U-251",> 10 µM
same,IC50,"COR-L105; Homo sapiens, COR-L105",> 10 µM
same,IC50,"NCI-H727; Homo sapiens, NCI-H727",> 10 µM
same,IC50,"HCC1419; Homo sapiens, HCC1419",> 10 µM
same,IC50,"NB6; Homo sapiens, NB6",> 10 µM
same,IC50,"NCI-H1581; Homo sapiens, NCI-H1581",> 10 µM
same,IC50,"PC-3; Homo sapiens, PC-3",> 10 µM
same,IC50,"NOS-1; Homo sapiens, NOS-1",> 10 µM
same,IC50,"NUGC-3; Homo sapiens, NUGC-3",> 10 µM
same,IC50,"NB10; Homo sapiens, NB10",> 10 µM
same,IC50,"CAL-72; Homo sapiens, CAL-72",5.48 µM
same,IC50,"FaDu; Homo sapiens, FaDu",> 10 µM
same,IC50,"HuP-T4; Homo sapiens, HuP-T4",> 10 µM
same,IC50,ALL-PO,> 10 µM
same,IC50,"NB13; Homo sapiens, NB13",> 10 µM
same,IC50,"CW-2; Homo sapiens, CW-2",> 10 µM
same,IC50,SK-MEL-28,> 10 µM
same,IC50,"CGTH-W-1; Homo sapiens, CGTH-W-1",> 10 µM
same,IC50,"NCI-H2347; Homo sapiens, NCI-H2347",> 10 µM
same,IC50,CTB-1,> 10 µM
same,IC50,"TE-9; Homo sapiens, TE-9",> 10 µM
same,IC50,RS4-11,> 10 µM
same,IC50,"A204; Homo sapiens, A204",> 10 µM
same,IC50,"MCF7; Homo sapiens, MCF7",> 10 µM
same,IC50,"ETK-1; Homo sapiens, ETK-1",> 10 µM
same,IC50,MS-1,> 10 µM
same,IC50,"SW1710; Homo sapiens, SW1710",> 10 µM
same,IC50,"HCC38; Homo sapiens, HCC38",> 10 µM
same,IC50,"SBC-5; Homo sapiens, SBC-5",> 10 µM
same,IC50,"RD; Homo sapiens, RD",> 10 µM
same,IC50,"CAL-120; Homo sapiens, CAL-120",> 10 µM
same,IC50,"NCI-H1299; Homo sapiens, NCI-H1299",> 10 µM
same,IC50,"Hs-578T; Homo sapiens, Hs-578T",> 10 µM

# From ChEMBL document CHEMBL1201861, “Genomics of Drug Sensitity in Cancer screening data, Wellcome Trust Sanger Institute”
